Assay results as given in PMC7031696 (Cell chemical biology, 2019).
Like-named read-outs stand apart in the source and are kept apart here.

Key:
[1] = system: Plasmodium falciparum 3D7-A10 parasites; assay: Stage specificity assay (8-h exposure of synchronized stages, IC50^8h); assay type: cell-based; settings: for IC50: Plasmodium falciparum
[2] = system: asynchronous 3D7-A10 parasite cultures; assay: Standard 72-h exposure asexual blood stage susceptibility assay (IC50^72h); assay type: cell-based, Plasmodium falciparum; settings: Plasmodium falciparum, 3D7, 72 h, read-out: Overall (72hr assay) Mean IC50 (IC50^72h)
[3] = system: 3D7-MR4 trophozoite parasite-infected RBCs; assay: Metabolomic profiling (hydrophilic metabolite changes, UHPLC-MS); assay type: cell-based, Plasmodium falciparum
[4] = system: 3D7-MR4 trophozoite parasite-infected RBCs; settings: 10 × IC50^72h; ref Allman et al., 2016; cited from earlier work

- Ratio lowest IC50 8hr/IC50 72hr ([1]; 3D7-A10): 3.7
- IC50 [2]: 103 nM
Compound: CCN(CC)CCn1c(=N)n(CC(O)c2ccc(Cl)c(Cl)c2)c2ccccc21.Cl (stereo not shown) [MMV000248]
- IC50 ([1]; 3D7, read-out: Early trophozoites Mean IC50 (IC50^8h), 8-h exposure 16–24 hr, 3D7-A10, survival at 60 h): 411 nM
- IC50 ([1]; 3D7, read-out: Late rings Mean IC50 (IC50^8h), 8-h exposure 8–16 hr, 3D7-A10, survival at 60 h): 6740 nM
- IC50 ([1]; 3D7, read-out: Late trophozoites Mean IC50 (IC50^8h), 8-h exposure 24–32 hr, 3D7-A10, survival at 60 h): 376 nM
- IC50 ([1]; 3D7, read-out: Schizonts Mean IC50 (IC50^8h), 8-h exposure 32–40 hr, 3D7-A10, survival at 60 h): 754 nM
- Stage of peak activity (Figure 6) ([1]; period when the parasite was most susceptible (lowest IC50^8h)): trophozoites
- Peak Activity (Table S1) ([1]; stage(s) with the lowest IC50^8h): Trophs
- Log2(fold changes) 3-phosphoglycerate ([3]; metabolite 3-phosphoglycerate, log2 fold change): 0.5325
- Log2(fold changes) 4-Pyridoxic acid ([3]; metabolite 4-Pyridoxic acid, log2 fold change): -0.4298
- Log2(fold changes) 4-aminobutyrate ([3]; metabolite 4-aminobutyrate, log2 fold change): 0.1717
- Log2(fold changes) 4-phosphopantetheine ([3]; metabolite 4-phosphopantetheine, log2 fold change): 0.0000
- Log2(fold changes) 4-phosphopantothenate ([3]; metabolite 4-phosphopantothenate, log2 fold change): -0.4691
- Log2(fold changes) 5-aminopentanoic acid ([3]; metabolite 5-aminopentanoic acid, log2 fold change): 0.0000
- Log2(fold changes) 5-methyl-THF ([3]; metabolite 5-methyl-THF, log2 fold change): 0.0000
- Log2(fold changes) 5-phosphoribosyl-1-pyrophosphate ([3]; metabolite 5-phosphoribosyl-1-pyrophosphate, log2 fold change): -1.6071
- Log2(fold changes) 6-phospho-D-gluconate ([3]; metabolite 6-phospho-D-gluconate, log2 fold change): -0.0745
- Log2(fold change) HVDD ([3]; metabolite HVDD): 0.0000
- Log2(fold change) Hydroxyisocaproic acid ([3]; metabolite Hydroxyisocaproic acid): 0.0000
- Log2(fold change) IDP ([3]; metabolite IDP): 0.0000
- Log2(fold change) IMP ([3]; metabolite IMP): -0.5306
- Log2(fold change) Inositol ([3]; metabolite Inositol): 0.0000
- Log2(fold change) Isopentyl-PP ([3]; metabolite Isopentyl-PP): 0.0000
- Log2(fold change) L-arginino-succinate ([3]; metabolite L-arginino-succinate): 0.0000
- Log2(fold change) LD ([3]; metabolite LD): -0.2580
- Log2(fold change) Myristoyl/tetradecanoyl-CoA ([3]; metabolite Myristoyl/tetradecanoyl-CoA): 0.0000
- Log2(fold change) N-Acetyl-L-alanine ([3]; metabolite N-Acetyl-L-alanine): -0.7106
- Log2(fold change) N-acetyl-L-ornithine ([3]; metabolite N-acetyl-L-ornithine): -2.2540
- Log2(fold change) N-acetyl-glucosamine-1/6-phosphate ([3]; metabolite N-acetyl-glucosamine-1/6-phosphate): 0.4803
- Log2(fold change) N-acetyl-glutamate ([3]; metabolite N-acetyl-glutamate): 0.5064
- Log2(fold change) N-acetyl-glutamine ([3]; metabolite N-acetyl-glutamine): -0.2284
- Log2(fold change) N-carbamoyl-L-aspartate ([3]; metabolite N-carbamoyl-L-aspartate): -0.8588
- Log2(fold change) NAD+ ([3]; metabolite NAD+): -0.1903
- Log2(fold change) NADH ([3]; metabolite NADH): 0.1160
- Log2(fold change) NADP+ ([3]; metabolite NADP+): -0.0428
- Log2(fold change) NADPH ([3]; metabolite NADPH): 0.7586
- Log2(fold change) O-acetyl-L-serine ([3]; metabolite O-acetyl-L-serine): 0.0000
- Log2(fold change) Octoluse 8/1P ([3]; metabolite Octoluse 8/1P): 0.0988
- Log2(fold change) Octoluse Bisphosphate ([3]; metabolite Octoluse Bisphosphate): -0.4045
- Log2(fold change) PD ([3]; metabolite PD): -2.8921
- Log2(fold change) PE ([3]; metabolite PE): -2.0895
- Log2(fold change) PEE ([3]; metabolite PEE): -1.2134
- Log2(fold change) PEEK ([3]; metabolite PEEK): -1.2498
- Log2(fold change) PVNF ([3]; metabolite PVNF): -4.7386
- Log2(fold change) Pyroglutamic acid ([3]; metabolite Pyroglutamic acid): -0.2793
- Log2(fold change) Pyrophosphate ([3]; metabolite Pyrophosphate): -1.6691
- Log2(fold change) Ribose-5-phosphate ([3]; metabolite Ribose-5-phosphate): 0.0000
- Log2(fold change) S-adenosyl-L-homocysteine ([3]; metabolite S-adenosyl-L-homocysteine): -0.0077
- Log2(fold change) S-adenosyl-L-methioninamine ([3]; metabolite S-adenosyl-L-methioninamine): 0.0000
- Log2(fold change) S-adenosyl-L-methionine ([3]; metabolite S-adenosyl-L-methionine): 0.0000
- Log2(fold change) S-methyl-5'-thioadenosine ([3]; metabolite S-methyl-5'-thioadenosine): 0.7911
- Log2(fold change) SD ([3]; metabolite SD): -1.1732
- Log2(fold change) SDL ([3]; metabolite SDL): 0.0000
- Log2(fold change) SID ([3]; metabolite SID): 0.0000
- Log2(fold change) Sedoheptulose bisphosphate ([3]; metabolite Sedoheptulose bisphosphate): -0.2688
- Log2(fold change) Thiamine pyrophosphate ([3]; metabolite Thiamine pyrophosphate): 0.0000
- Log2(fold changes) UDP-D-glucose ([3]; metabolite UDP-D-glucose, log2 fold change): -0.0583
- Log2(fold changes) UDP-D-glucuronate ([3]; metabolite UDP-D-glucuronate, log2 fold change): -0.2918
- Log2(fold changes) UDP-N-acetyl-glucosamine ([3]; metabolite UDP-N-acetyl-glucosamine, log2 fold change): -0.1616
- Log2(fold changes) UDP ([3]; metabolite UDP, log2 fold change): -0.0490
- Log2(fold changes) UMP ([3]; metabolite UMP, log2 fold change): -0.4851
- Log2(fold changes) UTP ([3]; metabolite UTP, log2 fold change): -1.1444
- Log2(fold change) hydroxyphenylpyruvate ([3]; metabolite hydroxyphenylpyruvate): 0.0000
- Log2(fold change) hydroxyproline/Aminolevulinate ([3]; metabolite hydroxyproline/Aminolevulinate): 0.0000
- Log2(fold change) hypoxanthine ([3]; metabolite hypoxanthine): -0.4020
- Log2(fold change) indole ([3]; metabolite indole): -0.6106
- Log2(fold change) inosine ([3]; metabolite inosine): -0.0831
- Log2(fold change) isoleucine ([3]; metabolite isoleucine): 0.0000
- Log2(fold change) lactate ([3]; metabolite lactate): -0.0810
- Log2(fold change) leucine ([3]; metabolite leucine): 0.0000
- Log2(fold change) lysine ([3]; metabolite lysine): 0.0000
- Log2(fold change) malate ([3]; metabolite malate): -0.9119
- Log2(fold change) maleic acid ([3]; metabolite maleic acid): 0.0000
- Log2(fold change) methionine ([3]; metabolite methionine): 0.0000
- Log2(fold change) myo-inositol ([3]; metabolite myo-inositol): 0.1446
- Log2(fold change) nicotinamide mononucleotide ([3]; metabolite nicotinamide mononucleotide): 0.0000
- Log2(fold change) nicotinate ([3]; metabolite nicotinate): 0.0498
- Log2(fold change) ornithine ([3]; metabolite ornithine): 0.1803
- Log2(fold change) orotate ([3]; metabolite orotate): -0.8832
- Log2(fold change) orotidine-5'-phosphate ([3]; metabolite orotidine-5'-phosphate): 0.0000
- Log2(fold change) oxaloacetate ([3]; metabolite oxaloacetate): 0.0000
- Log2(fold change) p-aminobenzoate ([3]; metabolite p-aminobenzoate): 0.0000
- Log2(fold change) p-hydroxybenzoate ([3]; metabolite p-hydroxybenzoate): 0.2564
- Log2(fold change) pantothenate ([3]; metabolite pantothenate): 0.0000
- Log2(fold change) phenylalanine ([3]; metabolite phenylalanine): 0.0000
- Log2(fold change) phenylpyruvate ([3]; metabolite phenylpyruvate): -0.8371
- Log2(fold change) phosphoenolpyruvate ([3]; metabolite phosphoenolpyruvate): 0.4091
- Log2(fold change) prephenate ([3]; metabolite prephenate): 0.0000
- Log2(fold change) proline ([3]; metabolite proline): 0.0000
- Log2(fold change) pyridoxine ([3]; metabolite pyridoxine): 0.0000
- Log2(fold change) pyruvate ([3]; metabolite pyruvate): -0.4292
- Log2(fold change) riboflavin ([3]; metabolite riboflavin): 0.0000
- Log2(fold change) ribose ([3]; metabolite ribose): 0.0000
- Log2(fold change) ribose-phosphate ([3]; metabolite ribose-phosphate): -0.0154
- Log2(fold change) ribulose-5-phosphate ([3]; metabolite ribulose-5-phosphate): 0.0000
- Log2(fold change) serine ([3]; metabolite serine): 0.0000
- Log2(fold change) sn-glycerol-3-phosphate ([3]; metabolite sn-glycerol-3-phosphate): 0.2907
- Log2(fold change) succinate/Methylmalonic acid ([3]; metabolite succinate/Methylmalonic acid): -0.5437
- Log2(fold change) succinyl-CoA/methylmalonyl-CoA ([3]; metabolite succinyl-CoA/methylmalonyl-CoA): 0.0000
- Log2(fold change) taurine ([3]; metabolite taurine): 0.0000
- Log2(fold change) thiamine ([3]; metabolite thiamine): 0.0000
- Log2(fold change) threonine/homoserine ([3]; metabolite threonine/homoserine): 0.0000
- Log2(fold change) thymidine ([3]; metabolite thymidine): -0.8046
- Log2(fold changes) thymine ([3]; metabolite thymine, log2 fold change): -0.3850
- Log2(fold changes) trehalose-6-Phosphate ([3]; metabolite trehalose-6-Phosphate, log2 fold change): 0.0000
- Log2(fold changes) tryptophan ([3]; metabolite tryptophan, log2 fold change): 0.0000
- Log2(fold changes) tyrosine ([3]; metabolite tyrosine, log2 fold change): 0.0000
- Log2(fold changes) uridine ([3]; metabolite uridine, log2 fold change): -0.9561
- peptide levels (hemoglobin catabolism signature) [4]: decreased peptide levels
